Data on ten compounds can be found in PMC6896446, “Design, synthesis and molecular modelling studies of some pyrazole derivatives as carbonic anhydrase inhibitors” (Journal of Enzyme Inhibition and Medicinal Chemistry, 2019).

Like-named read-outs stand apart in the source and are kept apart here.

The term Ki denotes a measure of affinity in units of concentration, obtained from inhibition or displacement. For orientation: melting point means the temperature, or range, at which the solid turns liquid. The IC50 is the point on the concentration scale where inhibition reaches its midpoint. A high value points to weaker potency.

The target of one data set is T1, hCA II (Homo sapiens, UniProt P00918).
T1 construct: The hCA I and II isoenzymes used here were purified from human blood as previously described; from tissue; host or cells: human blood
Description: hCA II inhibition, esterase activity method (4-nitrophenylacetate). It is filed as biochemical.

The next data set has as its target T2, hCA I (Homo sapiens, UniProt P00915).
T2 construct: The hCA I and II isoenzymes used here were purified from human blood as previously described; from tissue; host or cells: human blood
Description: hCA I inhibition, esterase activity method (4-nitrophenylacetate). It is filed as biochemical. Particulars: for IC50: against hCA I.

[1] abbreviates: esterase method, 4-nitrophenylacetate, pH 7.4, 25 °C, mean from at least three determinations, read-out: Ki hCA II.
Where [2] appears, read: esterase method, 4-nitrophenylacetate, pH 7.4, 25 °C, mean from at least three determinations, read-out: Ki hCA I.

T2 sequence (P00915 whole entry): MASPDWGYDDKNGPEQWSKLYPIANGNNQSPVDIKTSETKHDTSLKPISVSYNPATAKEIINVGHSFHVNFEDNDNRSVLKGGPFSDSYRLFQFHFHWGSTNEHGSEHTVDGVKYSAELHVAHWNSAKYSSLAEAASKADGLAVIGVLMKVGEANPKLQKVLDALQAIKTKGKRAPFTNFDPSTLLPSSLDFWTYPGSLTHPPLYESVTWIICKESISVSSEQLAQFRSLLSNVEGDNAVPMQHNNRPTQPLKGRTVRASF
Description for hCA II: Different inhibitor concentrations were used and all compounds were tested in triplicate at each concentration used.
Human CA I and II isozymes were purified by one step chromatography technique and the activity of the effluents was determined by the hydratase method, using CO2 as substrate and further kinetic studies were performed using the esterase activity method, using 4-nitrophenyl acetate (NPA) as substrate.[21]

The compound `COc1cc(/C=C/C(=O)c2ccc(N)cc2)cc(OC)c1OC` [Compound 1, (E)-1-(4-aminophenyl)-3-(3,4,5-trimethoxyphenyl)prop-2-en-1-one] had an inhibition constant (Ki) on hCA II of 33.8 nM.

`COc1ccc(/C=C/C(=O)c2ccc(N)cc2)cc1OC` [Compound 4, (E)-1-(4-aminophenyl)-3-(3,4-dimethoxyphenyl)prop-2-en-1-one]: the inhibition constant Ki was 21.5 nM on hCA II (setting [1]) and 9.71 nM on hCA I (setting [2]).

In the case of `COc1cc(C2CC(c3ccc(C)cc3)=NN2C(N)=S)cc(OC)c1OC` (stereo not drawn) [Compound 8, 3-p-Tolyl-5-(3,4,5-trimethoxyphenyl)-4,5-dihydro-1H-pyrazole-1-carbothioamide], the figures for the Ki on hCA II (setting [1]) and on hCA I (setting [2]) were 26.1 nM and 11 nM, respectively.

Turning to `CN(C)c1ccc(/C=C/C(=O)c2ccc(O)cc2)cc1` [Compound 5, (E)-3-(4-(dimethylamino)phenyl)-1-(4-hydroxyphenyl)prop-2-en-1-one], the figures for the inhibitory constant (Ki) at hCA II and on hCA I were 11.8 nM and 8.28 nM, respectively.

As to `COc1cc(C2CC(c3ccc(Br)cc3)=NN2C(N)=S)cc(OC)c1OC` (stereo not drawn) [Compound 7, 3-(4-Bromophenyl)-5-(3,4,5-trimethoxyphenyl)-4,5-dihydro-1H-pyrazole-1-carbothioamide], on hCA I (setting [2]), the Ki was 12.6 nM.

`CN(C)c1ccc(C2CC(c3ccc(O)cc3)=NN2C(N)=S)cc1` (stereo not drawn) [Compound 10, 5-(4-(Dimethylamino)phenyl)-3-(4-hydroxyphenyl)-4,5-dihydro-1H-pyrazole-1-carbothioamide] came in with a melting point of 180 to 182 °C. On hCA II (setting [1]), the inhibition constant (Ki) amounted to 41.3 nM. This compound returned an IC50 against hCA I of 23.9 to 24.4 nM. Also, the Ki on hCA I (setting [2]) was found to be 11.9 nM. Moreover, the “selectivity ratio (SR) hCA I versus hCA II” value on hCA I (hCA I versus hCA II) is listed as 3.46.

Take `COc1cc(/C=C/C(=O)c2ccc(Br)cc2)cc(OC)c1OC` [Compound 2, (E)-1-(4-bromophenyl)-3-(3,4,5-trimethoxyphenyl)prop-2-en-1-one]: the inhibition constant (Ki) was 17.1 nM on hCA II (setting [1]) and 8.03 nM at hCA I (setting [2]).

Consider `COc1ccc(C2CC(c3ccc(N)cc3)=NN2C(N)=S)cc1OC` (stereo not drawn) [Compound 9, 3-(4-Aminophenyl)-5-(3,4-dimethoxyphenyl)-4,5-dihydro-1H-pyrazole-1-carbothioamide], for which the inhibition constant (Ki) was 20.4 nM on hCA II (setting [1]) and 5.13 nM on hCA I.

As for `COc1cc(C2CC(c3ccc(N)cc3)=NN2C(N)=S)cc(OC)c1OC` (stereo not drawn) [Compound 6, 3-(4-Aminophenyl)-5-(3,4,5-trimethoxyphenyl)-4,5-dihydro-1H-pyrazole-1-carbothioamide], on hCA I, the 50% inhibitory concentration (IC50) lay in the range of 23.9 to 24.4 nM. Besides, the Ki on hCA I (setting [2]) turned out to be 12.2 nM.

Regarding `COc1cc(/C=C/C(=O)c2ccc(C)cc2)cc(OC)c1OC` [Compound 3, (E)-1-p-tolyl-3-(3,4,5-trimethoxyphenyl)prop-2-en-1-one], the Ki stood at 67.4 nM on hCA II (setting [1]) and 16.9 nM at hCA I (setting [2]).
